{"source": "patent US10759826B2", "about": "“15β-substituted estrone derivatives as selective inhibitors of 17β-hydroxysteroid-dehydrogenases, method of preparation and use thereof” (USTAV ORGANICKE CHEMIE A BIOCHEMIE AV CR, V.V.I., priority 2016, dated 2020)", "key": {"MRCS": {"system": "MRCS", "assay": "MTT cytotoxicity assay, MRC5 fibroblasts", "assay_type": "cell-based", "settings": "Homo sapiens, Fibroblast, non-tumor fibroblasts", "excerpt": "(§1) Compounds 5, 6, 7, 9, 14 and 15 were used for evaluation of antitumor activity. MTT cytotoxicity assay was used in vitro on cell lines derived from normal tissues and from tumors. Specifically, these were the K562 line (human myeloid leukemia), K562-Tax (human myeloid leukemia resistant to taxol and overexpressing PgP protein for multidrug resistance), CEM (T-lymphoblastic leukemia), CEM-DNR bulk (T-lymphoblastic leukemia resistant doxorubicin, lacking the expression of the target gene for inhibitors of topoisomerase II alpha), A549 line (human lung adenocarcinoma), HCT116p53 wt (human colon cancer), HCT116p53−/− (human colon cancer, mutant p53), U2OS line of human osteosarcoma and two fibroblast lines MRC5 and BJ as examples of non-tumor cells. Expression characteristics, profiles of susceptibility to classical antitumor drugs and methodology of the MTT cytotoxicity assay were repeatedly published (e.g. Noskova et al. Neoplasma 2002, 49, 418; S̆arek et. al. J. Med. Chem. 2003, 46, 25, 5402)."}, "BJ": {"system": "BJ", "assay": "MTT cytotoxicity assay, BJ fibroblasts", "assay_type": "cell-based", "settings": "Homo sapiens, non-tumor fibroblasts", "excerpt": "as §1"}}}
{"smiles": "COc1ccc(CC[C@@H]2CC(=O)[C@@]3(C)CC[C@@H]4c5ccc(O)cc5CC[C@H]4[C@H]23)cc1", "note": "[Compound 9, 3-Hydroxy-15β-(4-methoxyphenethyl)-estra-1,3,5 (10)-trien-17-one]", "values": [{"measurement": "IC50", "setting": "MRCS", "result": "> 50", "unit": "µM"}, {"measurement": "IC50", "setting": "BJ", "result": "> 50", "unit": "µM"}]}
